Patent US20100298300A1, “TRIAZOLOPYRAZINE COMPOUNDS USEFUL FOR THE TREATMENT OF DEGENERATIVE & INFLAMMATORY DISEASES” (priority 2006, published 2010)

Assays:
[1] = system: TNFα release by human PBMCs; experiment: Cytokine release by LPS stimulated human PBMCs (TNFα ELISA); type: cell-based; details: PBMC, 24 h, Table 5, LPS 1 μg/mL
[2] = system: MMP1 expression by activated primary synovial fibroblasts; experiment: 'MMP assay': MMP1 expression by complex trigger activated synovial fibroblasts (MMP1 ELISA); type: cell-based; details: Homo sapiens, Fibroblast; Table 3; RASFs, complex trigger, 48 hrs, MMP1 ELISA
MAPKAPK5 = target: T1, MAPKAPK5 (Homo sapiens, UniProt Q8IW41); experiment: MAPKAP-K5 assay (FlashPlate kinase assay)
T1 sequence (Q8IW41 1-471 isoform Q8IW41-2): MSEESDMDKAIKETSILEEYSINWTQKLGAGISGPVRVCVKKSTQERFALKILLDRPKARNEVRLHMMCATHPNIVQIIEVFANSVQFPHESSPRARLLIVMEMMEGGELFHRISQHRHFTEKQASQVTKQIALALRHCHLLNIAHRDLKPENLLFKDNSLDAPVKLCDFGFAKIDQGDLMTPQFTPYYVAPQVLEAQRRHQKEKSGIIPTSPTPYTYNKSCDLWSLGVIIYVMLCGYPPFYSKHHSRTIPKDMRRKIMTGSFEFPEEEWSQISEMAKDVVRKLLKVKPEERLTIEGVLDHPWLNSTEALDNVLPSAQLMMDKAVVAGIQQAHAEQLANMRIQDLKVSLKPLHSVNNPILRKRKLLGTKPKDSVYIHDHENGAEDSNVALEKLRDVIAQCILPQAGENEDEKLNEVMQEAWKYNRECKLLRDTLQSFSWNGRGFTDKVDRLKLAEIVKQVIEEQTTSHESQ

| IC50 (MAPKAPK5) [µM] | Compound | EC50 [1] [µM] | EC50 [2] [µM] |
| --- | --- | --- | --- |
| 0.001 to 0.1 | O=C1NCc2cc(-c3cnc(Nc4ccc(N5CCOCC5)nc4)c4ncnn34)ccc21 [Compound 87] | > 1 | 0.101 to 0.5 |
| > 1 | c1cc(-c2cnc(Nc3ccc(N4CCOCC4)cc3)c3ncnn23)[nH]n1 [Compound 23, (4-Morpholin-4-yl-phenyl)-[5-(2H-pyrazol-3-yl)-[1,2,4]triazolo[1,5-a]pyrazin-8-yl]-amine] | > 1 | > 1 |
| 0.001 to 0.1 | CC(C)N1CCN(c2ccc(Nc3ncc(-c4coc(C(N)=O)c4)n4ncnc34)cn2)CC1 [Compound 86, 4-(8-(6-(4-Isopropylpiperazin-1-yl)pyridin-3-ylamino)-[1,2,4]triazolo[1,5-a]pyrazin-5-yl)furan-2-carboxamide] | > 1 | > 1 |
| > 1 | c1nc2c(Nc3ccc(N4CCOCC4)cc3)ncc(-c3ccc4nonc4c3)n2n1 [Compound 72] | > 1 | > 1 |
| > 1 | c1nc2c(Nc3ccc(N4CCN(C5CC5)CC4)cc3)ncc(-c3cn[nH]c3)n2n1 [Compound 59, [4-(4-Cyclopropylpiperazin-1-yl)phenyl]-[5-(1H-pyrazol-4-yl)-[1,2,4]triazolo[1,5-a]pyrazin-8-yl]amine] | > 1 | > 1 |
| 0.501 to 1 | O=C1NCc2cc(-c3cnc(Nc4ccc(N5CCOCC5)cc4)c4ncnn34)sc21 [Compound 113] | > 1 | 0.101 to 0.5 |
| 0.001 to 0.1 | CC(C)N1CCN(c2ccc(Nc3ncc(-c4ccc5c(c4)CNC5=O)n4ncnc34)cc2Cl)CC1 [Compound 180] | > 1 | > 1 |
| > 1 | O=C1CCC(c2ccc(-c3cnc(Nc4ccc(N5CCOCC5)cc4)c4ncnn34)cc2)=NN1 [Compound 71] | > 1 | > 1 |
| > 1 | CN1CCN(c2ccc(Nc3ncc(-c4ccc(C(N)=O)cc4F)n4ncnc34)cc2)CC1 [Compound 8] | > 1 | 0.501 to 1 |
| > 1 | Nc1ncc(-c2cnc(Nc3ccc(N4CCOCC4)cc3)c3ncnn23)cn1 [Compound 78] | 0.501 to 1 | > 1 |
| > 1 | c1nc2c(Nc3ccc(N4CCN(CC5CC5)CC4)cc3)ncc(-c3cn[nH]c3)n2n1 [Compound 46, {4-[4-(Cyclopropylmethyl)piperazin-1-yl]phenyl}-[5-(1H-pyrazol-4-yl)-[1,2,4]triazolo[1,5-a]pyrazin-8-yl]amine] | > 1 | > 1 |
| > 1 | O=C1NCc2cc(-c3cnc(Nc4ccc(F)cc4)c4ncnn34)ccc21 [Compound 117] | > 1 | 0.101 to 0.5 |
| > 1 | c1nc2c(Nc3ccc(N4CCN(C5CC5)CC4)nc3)ncc(-c3cn[nH]c3)n2n1 [Compound 60, [6-(4-Cyclopropylpiperazin-1-yl)pyridin-3-yl]-[5-(1H-pyrazol-4-yl)-[1,2,4]triazolo[1,5-a]pyrazin-8-yl]amine] | > 1 | > 1 |
| > 1 | NC(=O)c1ccc(-c2cnc(Nc3ccc(N4CCOCC4)cc3)c3ncnn23)s1 [Compound 13] | > 1 | 0.101 to 0.5 |
| > 1 | CCc1[nH]ncc1-c1cnc(Nc2ccc(N3CCOCC3)cc2)c2ncnn12 [Compound 52, 5-(5-Ethyl-1H-pyrazol-4-yl)-N-(4-morpholinophenyl)-[1,2,4]triazolo[1,5-a]pyrazin-8-amine] | > 1 | > 1 |
